Values quoted from earlier work as cited in US20240415910A1, “Toxicity-Removed and Medicinal Effect-Retained Fuzi Decoction Granule and Preparation Method Thereof” (Zhejiang Chinese Medical University, priority 2023, published 2024).

How the values were obtained:
[1] = oral administration
[2] = water and ethanol

## CCN1C[C@]2(COC)[C@H](O)C[C@H](OC)[C@@]34[C@@H]5C[C@@]6(O)[C@H](OC(=O)c7ccccc7)[C@@H]5[C@@](OC(C)=O)([C@@H]([C@H](OC)[C@H]23)[C@@H]14)[C@@H](O)[C@@H]6OC [Aconitine]
[1]
  oral amount that can cause poisoning reactions: 0.2 mg
[2]
  solubility: soluble in both water and ethanol
